In one test the test system is IL-10. Briefly: Endotoxic shock (LPS) model, serum IL-10. The test is classed as in vivo, Sprague-Dawley rats. The conditions noted are these: biliverdin i.p. […] 17 h and 1 h prior to and 8 h after LPS. As to the method:
Treatment Protocol. Endotoxin (lipopolysaccharide/LPS; Sigma; E. coli serotype 0128:B7; 3 mg/kg, i.v.) was administered to male Sprague-Dawley, resulting in an acute non-lethal inflammation. In rats, a sublethal dose of LPS results in a moderate lung inflammation characterized by neutrophil accumulation and protein accumulation in the airspace, both markers of lung inflammation. The pro-inflammatory cytokine TNF-alpha increases very rapidly in the serum, peaking by 60-90 minutes. This is followed by increases in IL-10, a prototypical anti-inflammatory cytokine that peaks 8-12 hr later.
Administration of Biliverdin. Biliverdin (Frontier Scientific: prepared in PBS following solubilization in NaOH) was administered i.p. at […] 17 hours prior to, one hour prior to, and eight hours after LPS administration.
Bronchoalveolar Lavage. A bronchoalveolar lavage (BAL) was performed 24 hours after LPS administration. Serum cytokines were measured using commercially available ELISA kits (R&D Systems Inc.) per the manufacturer's instructions. Total protein was determined via a standard Bradford assay based on a standard curve. […] Total cell count was determined as well as differential analysis of cell type and morphology via Diff-Quik® Fixative (American Scientific Products) staining of a sample of the lavagate.

The next test concerns ICAM-1. The test can be described thus: Real time RT-PCR of graft muscularis after SITx, ICAM-1. The test is classed as in vivo, LEW rats. The conditions noted are these: BV treatment. As to the method: Small Intestinal Transplantation. Orthotopic small intestinal transplantation (SITx) was performed in syngeneic Lewis rats. SITx with caval drainage was performed using a previously described procedure (Murase et al., in Handbook of Animal Models in Transplantation Research, Cramer et al., Eds. CRC Press, Boca Raton, Fla., pp. 203-213 (1994)). […] The graft was perfused via the aortic segment with 5 ml chilled Ringer's lactate solution, and the intestinal lumen was irrigated with 20 ml of cold saline solution containing 0.5% neomycin-sulfate (Sigma, St. Louis, Mo.). […]
SYBR green real time RT-PCR. The effects of administration of biliverdin on transplant-induced pro-inflammatory and anti-inflammatory gene expression were assessed in muscularis extracts by RT-PCR Biliverdin ([…], i.p.) was administered to both the donor and recipient three hours preoperatively. […] Equal aliquots (5 μg) of total RNA from each sample were quantified by spectrophotometry (wavelength […]) and aliquoted at a concentration of 40 ng/μl. Peak mRNA expression was quantified in duplicate by SYBR Green two-step, real-time RT-PCR. […] Real-time PCR data were plotted as the ΔRn fluorescence signal versus the cycle number. […] Quantification of mRNA expression was normalized to GAPDH and calculated relative to control using the comparative CT method (Schmittgen et al., J. Biochem. Biophys. Methods 46(1-2):69-8, 2000). […]
On the technique in general: Quantitative PCR measures a nucleic acid by following its amplification.

Counter-ions that a name gives are not always drawn.

Regarding `C=CC1=C(C)/C(=C/C2=NC(=C\c3[nH]c(/C=C4\NC(=O)C(C)=C4C=C)c(C)c3CCC(=O)O)/C(CCC(=O)O)=C2C)NC1=O` [biliverdin, biliverdin dihydrochloride], in the test with IL-10, the IL-10 level result is recorded as “augmentation”. Moreover, the “reduction of ICAM-1 expression in the graft” value in the test with ICAM-1 is given as “up to 30%”.

Values taken from patent US8097585B2, “Methods of treating inflammation by administration of heme oxygenase-1 and products of heme degradation” (priority 2002, dated 2012).
